Reference: patent US20230074252A1, “DOSAGES AND METHODS FOR TREATING PULMONARY ARTERIAL HYPERTENSION WITH RODATRISTAT” (Altavant Sciences GmbH, priority 2020, published 2023)

How the values were obtained:
[1] = target: CYP3A4 (Homo sapiens, UniProt P08684); experiment: In vitro CYP substrate assessment (victim potential); assay type: in vitro ADME
[2] = Plasma protein binding; assay type: in vitro ADME, human; conditions: for fraction unbound: human, plasma, read-out: Plasma protein binding (fraction bound) (converted)
Text: This analysis is typically based on non-protein bound drug levels in plasma. Values for plasma protein binding (fraction bound) of rodatristat ethyl and rodatristat were 0.995 and 0.991, respectively.
Calculation of Cmax, u, portal uses plasma Cmax, fraction of an oral dose absorbed (Fa) and measured unbound fraction in blood. For rodatristat, experimentally derived values were used for Fa determined in a rat 14C study (20%) and in vitro binding to human plasma (99.1%) and blood:plasma distribution (RB, 0.72). Walsky et al proposed a threshold where the ratio of Cmax, u, portal/Ki of <0.1 is associated with low risk. […] In the rat, the RE:R is ˜3-fold higher in portal blood compared to the periphery.

[3] = target: T1, OATP1B1 (Homo sapiens, UniProt Q9Y6L6); experiment: In vitro transporter substrate assessment; assay type: in vitro ADME
T1 construct: expressed in transfected cells; host or cells: HEK293
T1 sequence (Q9Y6L6 1-691): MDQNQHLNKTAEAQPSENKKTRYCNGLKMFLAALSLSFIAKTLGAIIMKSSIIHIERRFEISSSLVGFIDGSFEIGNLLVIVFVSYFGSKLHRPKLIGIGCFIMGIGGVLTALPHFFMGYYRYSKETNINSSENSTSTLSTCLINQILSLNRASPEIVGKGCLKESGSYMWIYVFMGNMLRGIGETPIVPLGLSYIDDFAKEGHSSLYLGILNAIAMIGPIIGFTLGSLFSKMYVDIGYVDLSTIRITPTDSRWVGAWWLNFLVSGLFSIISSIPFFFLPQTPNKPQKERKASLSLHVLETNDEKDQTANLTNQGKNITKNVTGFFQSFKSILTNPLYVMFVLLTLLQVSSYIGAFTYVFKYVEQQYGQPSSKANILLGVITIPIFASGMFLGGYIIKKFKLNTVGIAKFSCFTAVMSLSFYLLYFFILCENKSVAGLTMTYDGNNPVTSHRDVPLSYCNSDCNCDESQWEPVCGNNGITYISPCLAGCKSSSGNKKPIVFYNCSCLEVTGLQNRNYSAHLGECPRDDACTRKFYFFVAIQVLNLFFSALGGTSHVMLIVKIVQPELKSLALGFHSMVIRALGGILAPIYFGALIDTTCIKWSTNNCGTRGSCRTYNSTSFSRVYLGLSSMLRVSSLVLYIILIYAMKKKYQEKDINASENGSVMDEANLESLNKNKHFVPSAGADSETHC

[4] = target: T2, OATP1B3 (Homo sapiens, UniProt Q9NPD5); experiment: Transporter inhibition, HEK293 cells, estradiol-17β-glucuronide probe; assay type: in vitro ADME; conditions: for Calculated Values, R-value, OATP1B3 / Potential for interaction? (transporter inhibitor), OATP1B3: predicted @ 600 mg BID; for IC50: read-out: In vitro IC50, OATP1B3
T2 construct: expressed in transfected cells; host or cells: HEK293
T2 sequence (Q9NPD5 1-702): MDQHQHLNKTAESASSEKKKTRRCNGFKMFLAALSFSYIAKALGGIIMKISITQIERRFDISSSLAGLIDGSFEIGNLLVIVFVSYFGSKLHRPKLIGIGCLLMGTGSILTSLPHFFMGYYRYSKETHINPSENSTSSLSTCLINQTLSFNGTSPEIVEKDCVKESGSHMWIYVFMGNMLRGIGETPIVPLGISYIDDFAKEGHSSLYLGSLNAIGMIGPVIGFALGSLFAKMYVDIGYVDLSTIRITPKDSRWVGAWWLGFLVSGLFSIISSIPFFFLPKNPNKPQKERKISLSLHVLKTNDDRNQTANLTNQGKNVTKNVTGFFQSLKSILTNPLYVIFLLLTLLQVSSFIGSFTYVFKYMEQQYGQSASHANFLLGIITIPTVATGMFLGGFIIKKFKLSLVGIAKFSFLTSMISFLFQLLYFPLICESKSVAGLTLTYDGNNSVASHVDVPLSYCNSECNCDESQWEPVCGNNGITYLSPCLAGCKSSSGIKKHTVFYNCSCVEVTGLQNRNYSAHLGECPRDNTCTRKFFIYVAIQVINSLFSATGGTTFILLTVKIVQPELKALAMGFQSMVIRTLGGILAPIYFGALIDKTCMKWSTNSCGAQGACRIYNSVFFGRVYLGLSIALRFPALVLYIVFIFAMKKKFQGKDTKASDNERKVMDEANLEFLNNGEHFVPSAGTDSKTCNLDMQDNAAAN
Method: (§1) The competitive inhibition of specific transporters was investigated for RVT-1201 and KAR5417 in transporter-expressing in vitro systems (XT158039). Inhibition of P-gp was evaluated using a Caco-2 cell line with digoxin as probe substrate. Inhibition of OATP1B1 and OATP1B3 was evaluated using a HEK293 cell line expressing these transporters with estradiol-17β-glucuronide as probe substrate. In addition, inhibition of other transporters was also investigated (BCRP, OAT1, OAT3, OCT2, MATE1, MATE2-K). The IC50 estimates for P-gp (RVT-1201) and OATP1B1/3 (RVT-1201 and KAR5417) supported further evaluation of inhibition DDI potential using the PBPK model. For each IC50 estimate, substrate concentration and Km were used to estimate RVT-1201 and KAR5417 Ki with Equation 1 (Cheng and Prusoff, 1973).

[5] = target: T1, OATP1B1; experiment: as above; assay type: in vitro ADME; conditions: for Calculated Values, R-value, OATP1B1 / Potential for interaction? (transporter inhibitor), OATP1B1: predicted @ 600 mg BID; for IC50: read-out: In vitro IC50, OATP1B1
Method: as §1

[6] = test system: CYP3A4; experiment: FDA guidance DDI risk assessment, perpetrator potential; design: species or system human; conditions: predicted @ 600 mg BID
Method: The potential for rodatristat ethyl or rodatristat to be perpetrators of drug-drug interactions was assessed across in vitro CYP and transporter studies (Tables 1-4). […] This analysis was performed to assess the potential for clinically meaningful DDIs as recommended in FDA Draft Guidance: “In Vitro Metabolism- and Transporter-Mediated Drug-Drug Interaction Studies Guidance for Industry”; October 2017 (FDA, 2017).
R1 and R3 values using free (non-protein bound) drug levels were calculated based on plasma protein binding (fraction bound, fb) of rodatristat ethyl (0.995) and rodatristat (0.991). The FDA Guidance is set forth In Vitro Metabolism- and Transporter-Mediated Drug-Drug Interaction Studies Guidance for Industry (2017). […] Parameters for the prediction are set forth below in Tables 5 and 6.

[7] = target: CYP2D6 (Homo sapiens, UniProt P10635); experiment: In vitro CYP substrate assessment (victim potential); assay type: in vitro ADME
[8] = target: MRP2 (Homo sapiens, UniProt Q92887); experiment: Transporter inhibition, in vitro; assay type: in vitro ADME; conditions: for Potential for interaction? (transporter inhibitor), MRP2: predicted @ 600 mg BID
MRP2, sequence (Q92887 whole entry): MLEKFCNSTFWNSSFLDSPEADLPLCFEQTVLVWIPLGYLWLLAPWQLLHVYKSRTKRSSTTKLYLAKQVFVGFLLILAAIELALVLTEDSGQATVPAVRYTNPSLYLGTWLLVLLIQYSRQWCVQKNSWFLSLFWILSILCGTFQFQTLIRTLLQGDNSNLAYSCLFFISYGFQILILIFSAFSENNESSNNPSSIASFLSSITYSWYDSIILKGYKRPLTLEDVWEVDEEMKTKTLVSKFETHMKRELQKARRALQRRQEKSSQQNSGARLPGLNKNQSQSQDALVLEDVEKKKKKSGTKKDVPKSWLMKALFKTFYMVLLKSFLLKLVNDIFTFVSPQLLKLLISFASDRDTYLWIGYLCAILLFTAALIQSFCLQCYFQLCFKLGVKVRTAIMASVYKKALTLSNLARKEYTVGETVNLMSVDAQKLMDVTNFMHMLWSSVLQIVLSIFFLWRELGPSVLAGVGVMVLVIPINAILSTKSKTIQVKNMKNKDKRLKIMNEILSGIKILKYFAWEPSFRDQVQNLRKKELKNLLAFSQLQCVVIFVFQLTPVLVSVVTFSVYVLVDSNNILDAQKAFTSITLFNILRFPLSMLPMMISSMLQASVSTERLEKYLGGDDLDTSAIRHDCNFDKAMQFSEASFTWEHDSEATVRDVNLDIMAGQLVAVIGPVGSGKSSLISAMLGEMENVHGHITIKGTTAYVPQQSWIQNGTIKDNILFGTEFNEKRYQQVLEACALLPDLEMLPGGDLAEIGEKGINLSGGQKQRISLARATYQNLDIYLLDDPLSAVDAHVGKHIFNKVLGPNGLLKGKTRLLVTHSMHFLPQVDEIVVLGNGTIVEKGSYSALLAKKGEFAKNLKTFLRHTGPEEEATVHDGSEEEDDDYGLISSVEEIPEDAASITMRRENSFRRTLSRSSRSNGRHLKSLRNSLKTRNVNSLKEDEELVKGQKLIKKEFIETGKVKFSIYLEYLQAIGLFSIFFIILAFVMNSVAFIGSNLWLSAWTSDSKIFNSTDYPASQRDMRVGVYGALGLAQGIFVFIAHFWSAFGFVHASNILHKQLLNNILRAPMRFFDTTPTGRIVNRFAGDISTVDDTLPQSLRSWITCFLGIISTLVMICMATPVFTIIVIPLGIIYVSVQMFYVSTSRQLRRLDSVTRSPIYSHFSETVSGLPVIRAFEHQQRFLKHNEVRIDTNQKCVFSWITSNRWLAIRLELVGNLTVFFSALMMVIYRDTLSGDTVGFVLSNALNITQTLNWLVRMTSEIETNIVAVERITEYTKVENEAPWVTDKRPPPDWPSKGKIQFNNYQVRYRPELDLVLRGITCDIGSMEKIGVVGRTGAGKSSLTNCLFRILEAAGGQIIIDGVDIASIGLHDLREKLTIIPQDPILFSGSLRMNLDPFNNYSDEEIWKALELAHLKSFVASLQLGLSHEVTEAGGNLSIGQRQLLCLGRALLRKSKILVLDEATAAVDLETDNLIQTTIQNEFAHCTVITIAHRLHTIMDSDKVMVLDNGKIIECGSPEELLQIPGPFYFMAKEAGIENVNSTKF

CYP2D6, sequence (P10635 whole entry): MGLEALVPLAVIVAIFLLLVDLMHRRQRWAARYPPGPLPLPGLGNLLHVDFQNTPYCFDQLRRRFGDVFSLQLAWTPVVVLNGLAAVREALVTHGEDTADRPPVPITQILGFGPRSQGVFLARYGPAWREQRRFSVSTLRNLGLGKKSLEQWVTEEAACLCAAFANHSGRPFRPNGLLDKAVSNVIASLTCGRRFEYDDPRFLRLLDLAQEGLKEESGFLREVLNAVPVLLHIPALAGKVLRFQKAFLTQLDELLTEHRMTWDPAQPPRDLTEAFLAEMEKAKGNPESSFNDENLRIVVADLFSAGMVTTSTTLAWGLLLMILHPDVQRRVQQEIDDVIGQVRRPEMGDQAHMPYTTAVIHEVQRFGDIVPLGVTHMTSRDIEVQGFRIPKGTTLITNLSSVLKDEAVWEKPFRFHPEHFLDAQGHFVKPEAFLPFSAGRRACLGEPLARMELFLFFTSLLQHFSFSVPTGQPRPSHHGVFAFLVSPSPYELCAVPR
CYP3A4 (Homo sapiens, UniProt P08684), sequence (P08684 whole entry): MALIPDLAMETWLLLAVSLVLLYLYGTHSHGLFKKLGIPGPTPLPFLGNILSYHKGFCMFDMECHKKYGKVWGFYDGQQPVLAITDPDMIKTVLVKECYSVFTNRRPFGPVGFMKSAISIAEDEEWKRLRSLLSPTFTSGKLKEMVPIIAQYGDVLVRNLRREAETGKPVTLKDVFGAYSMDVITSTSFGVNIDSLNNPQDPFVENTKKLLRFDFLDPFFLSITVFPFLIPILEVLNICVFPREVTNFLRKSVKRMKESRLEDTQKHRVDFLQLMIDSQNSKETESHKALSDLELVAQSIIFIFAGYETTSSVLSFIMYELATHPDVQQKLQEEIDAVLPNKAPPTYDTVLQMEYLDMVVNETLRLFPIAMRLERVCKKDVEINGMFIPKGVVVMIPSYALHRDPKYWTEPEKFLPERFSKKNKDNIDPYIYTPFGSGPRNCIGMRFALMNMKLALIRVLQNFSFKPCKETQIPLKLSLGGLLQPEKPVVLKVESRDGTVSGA

Row | Compound | In vitro substrate? CYP3A4 [1] | fraction unbound [2] | In vitro substrate? OATP1B1 [3] | Calculated Values, R-value, OATP1B3 [4] | Potential for interaction? (transporter inhibitor), OATP1B3 [4] | Calculated Values, R-value, OATP1B3 ([4]; listed as rodatristat ethyl) | IC50 [4] [µM] | Calculated Values, R-value, OATP1B1 [5] | Potential for interaction? (transporter inhibitor), OATP1B1 [5] | IC50 [5] [µM] | Potential for interaction (perpetrator), CYP3A4 [6] | In vitro substrate? CYP2D6 [7] | Potential for interaction? (transporter inhibitor), MRP2 [8] | In vitro binding to human plasma [2] [%] | Accumulation by OATP1B1 uptake transporter ([3]; 3 μM) [fold] | inhibition at 30 µM ([8]; nominal 30 μM) [%]
1 | CCOC(=O)[C@@H]1CC2(CCN(c3cc(O[C@H](c4ccc(Cl)cc4-c4ccccc4)C(F)(F)F)nc(N)n3)CC2)CN1 [Rodatristat ethyl, (S)-ethyl 8-(2-amino-6-((R)-1-(5-chloro-[1,1′-biphenyl]-2-yl)-2,2,2-trifluoroethoxy)pyrimidin-4-yl)-2,8-diazaspiro[4.5]decane-3-carboxylate] | No | 0.005 | not a substrate and No | <1.1 | No | < 1.1 | 12.3 | <1.1 | No | 25.4 | Yes | No | No | – | – | –
2 | Nc1nc(O[C@H](c2ccc(Cl)cc2-c2ccccc2)C(F)(F)F)cc(N2CCC3(CC2)CN[C@H](C(=O)O)C3)n1 [Rodatristat, (S)-8-(2-amino-6-((R)-1-(5-chloro-[1,1′-biphenyl]-2-yl)-2,2,2-trifluoroeth-oxy)pyrimidin-4-yl)-2,8-diazaspiro[4.5]decane-3-carboxylic acid] | No | 0.009 | is an in vitro substrate and Yes | 1.26 | Yes | – | 1.93 | <1.1 | No | 5.74 | Yes | No | No^a | 99.1 | 2.22 | 25
